PubChem BioAssay (NCI)
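Where inhibition never reached the appropriate level, the endpoint shown equals the highest concentration tested. Otherwise, values were interpolated linearly from a five-concentration, 48-hour dose response in 96-well plates. GI50 is the concentration that inhibits growth by half. At the TGI there is no net growth.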

How the values were obtained:
Assay in all cases: NCI tumour cell line growth inhibition, 48 h
COLO 205 colon = system: COLO 205 colon
IGROV1 ovarian = system: IGROV1 ovarian
NCI-H226 lung = system: NCI-H226 lung
SK-MEL-5 melanoma = system: SK-MEL-5 melanoma
HCT-15 colon = system: HCT-15 colon
NCI-H522 lung = system: NCI-H522 lung
HOP-62 NSCLC = system: HOP-62 NSCLC
SR leukemia = system: SR leukemia
DU-145 prostate = system: DU-145 prostate
MDA-MB-231 breast = system: MDA-MB-231 breast

| Compound | TGI (COLO 205 colon) [µM] | TGI (IGROV1 ovarian) [µM] | TGI (NCI-H226 lung) [µM] | TGI (SK-MEL-5 melanoma) [µM] | TGI (HCT-15 colon) [µM] | TGI (NCI-H522 lung) [µM] | TGI (HOP-62 NSCLC) [µM] | TGI (SR leukemia) [µM] | GI50 (COLO 205 colon) [µM] | GI50 (IGROV1 ovarian) [µM] | GI50 (DU-145 prostate) [µM] | TGI (DU-145 prostate) [µM] | GI50 (HOP-62 NSCLC) [µM] | GI50 (MDA-MB-231 breast) [µM] | TGI (MDA-MB-231 breast) [µM] | GI50 (NCI-H226 lung) [µM] | GI50 (SK-MEL-5 melanoma) [µM] | GI50 (HCT-15 colon) [µM] | GI50 (NCI-H522 lung) [µM] | GI50 (SR leukemia) [µM] |
| --- | --- | --- | --- | --- | --- | --- | --- | --- | --- | --- | --- | --- | --- | --- | --- | --- | --- | --- | --- | --- |
| Cc1ccc(NC(=O)CCC(=O)C(C#N)c2ccccc2)cc1C (stereo unspecified) | > 100 | > 100 | > 100 | > 100 | > 100 | > 100 |  |  |  |  |  |  |  |  |  |  |  |  |  |  |
| C[n+]1c(N)n(C(=O)OCc2ccccc2)c(=O)c2c1ncn2C(=O)OCc1ccccc1 | > 100 | > 100 | 59.8 | > 100 | > 100 | > 100 | > 100 |  |  |  |  |  |  |  |  |  |  |  |  |  |
| NCP(=O)(O)OCC(=O)O | > 100 | > 100 |  | > 100 | > 100 | > 100 | > 100 | > 100 |  |  |  |  |  |  |  |  |  |  |  |  |
| COc1ccc2c(c1)OCCC1=C2SCC2(C)CCN=C12 (stereo unspecified) | > 100 | > 100 | > 100 | > 100 |  | > 100 | > 100 |  |  |  |  |  |  |  |  |  |  |  |  |  |
| O=C(/C(=C/c1ccccc1)c1ccccc1)N1c2ccccc2CC1c1c[nH]c2ccccc12 (stereo unspecified) | 24.7 | > 100 | > 100 | > 100 | > 100 | > 100 | > 100 | > 100 |  |  |  |  |  |  |  |  |  |  |  |  |
| COC(=O)Cc1nc2ccccc2o1 | > 100 | > 100 | > 100 | > 100 | > 100 | > 100 | > 100 | > 100 |  |  |  |  |  |  |  |  |  |  |  |  |
| CN(C)CC1CCCC/C1=N/OC(=O)c1ccc(Cl)c(Cl)c1 (stereo unspecified) | > 100 | > 100 | > 100 | > 100 | > 100 | > 100 | > 100 | > 100 |  |  |  |  |  |  |  |  |  |  |  |  |
| CCOC(=S)SCN1C(=O)c2ccccc2S1(=O)=O | 11.2 | 52.4 | 80.9 | 24.4 | 36.1 | 27.8 | 65.8 |  | 2.94 | 18.5 | 16.5 | 34.2 | 24.6 | 19.3 | 40.9 | 29.2 | 11.4 | 19.2 | 11.3 |  |
| CCOC(=O)/N=c1/nc(N(C)C)ss1 |  | > 100 | > 100 | > 100 | > 100 | > 100 | > 100 | > 100 |  |  |  |  |  |  |  |  |  |  |  |  |
| NS(=O)(=O)c1ccc(NC(=O)COC(=O)c2cccc3c(=O)c4ccccc4[nH]c23)cc1 | > 100 | 61.5 | 61.1 | > 100 | > 100 | 43.5 | 40.2 | 19.7 |  |  |  |  |  |  |  |  |  |  |  |  |
| COc1ccc(/C=N/N=C(\[O-])c2ccncc2)cc1F.COc1ccc(/C=N\N=C(/[O-])c2ccncc2)cc1F.[Cu+2] | 42.2 | 40.2 |  | 80.4 | > 100 | 26.1 | 41 | 69.6 | 19.7 | 17.6 | 32 | > 100 | 20.3 | 32.4 | > 100 |  | 26 | 52.6 | 12.7 | 16.8 |
| COc1ccc(C(=O)O/N=C2/CCC/C2=C\c2ccccc2)cc1 | > 100 | > 100 | > 100 | > 100 | > 100 | > 100 | > 100 | > 100 |  |  |  |  |  |  |  |  |  |  |  |  |
| C#Cc1cc2c(N)c(C(=O)c3cc(OC)c(OC)c(OC)c3)[nH]c2cc1OC | 2.27 | 74.9 | > 100 | 12.9 | > 100 |  | > 100 | > 100 | 0.38 | 2.05 | 1.2 | > 100 | 0.58 | 5.13 | > 100 | 5.74 | 0.434 | 0.46 |  | 0.381 |
| Cn1ccnc1C[N-]Cc1nccn1C.O=[N+]([O-])[O-].O=[N+]([O-])[O-].[Cu+2] | > 100 | > 100 | > 100 | > 100 |  | > 100 | > 100 |  | > 100 | > 100 |  |  | > 100 |  |  | > 100 | > 100 |  | > 100 |  |
| CCc1nc(-n2c(-c3ccccc3)nc3ccccc3c2=O)nc(N)c1-c1ccc(Cl)cc1 | > 100 | > 100 | > 100 | 33 | > 100 | > 100 | > 100 |  | 14.2 | 27.1 | 72.6 | > 100 | 14.7 | > 100 | > 100 | 69.2 | 5.6 | 6.43 | 52.2 |  |
| O=C(NCCCCOCC#Cc1ccccc1C#CCS(=O)(=O)c1ccccc1)c1cc2ccccc2[nH]1 | 28.1 | 7.03 | 25 | 16.3 | 15.7 | 16.4 | > 50 |  | 10.9 | 2.68 | 18.1 | > 50 | 21.5 | 9.59 | 27.4 | 9.85 | 7.86 | 7.21 | 7.79 |  |
| COc1ccc2nc3cccc(C(=O)NCCN(C)C)c3nc2c1 | > 24.3 | > 48.2 | 3.85 |  | 6.15 | > 100 | 3.76 | > 100 |  |  |  |  |  |  |  |  |  |  |  |  |
| Cc1cc(O)c(C(c2ccncc2)c2c(O)cc(C)[nH]c2=O)c(=O)[nH]1 | > 100 | > 100 |  | > 100 | > 100 | > 100 | > 100 | > 100 |  |  |  | > 100 |  |  | > 100 |  |  |  |  |  |
| CC(C)(C)C(=O)OCc1nc2cc3c(cc2c(=O)[nH]1)CCC3=O | > 100 | > 100 | > 100 | > 100 | > 100 | > 100 | > 100 |  | > 100 | > 100 | > 100 | > 100 | > 100 | > 100 | > 100 | > 100 | > 100 | > 100 | > 100 |  |
| CN(C)CCNc1nc(-c2cccs2)cc(-c2cccs2)n1 | 27.9 | 69.2 | 30.5 | 29.6 | 33.2 |  | 40.7 | 15.4 |  |  |  |  |  |  |  |  |  |  |  |  |
